Measurements published in patent US11857535B2, “Methods of treating mutant lymphomas” (Kymera Therapeutics, Inc., priority 2020, dated 2024).
pIC50: −log10 of the molar value.

Legend:
[1] = target: T1, Aiolos (Homo sapiens, UniProt Q96SW2+Q9UKT9); assay: Aiolos degradation in OCI-Ly10 xenograft tumors (tumor PD); type: in vivo; conditions: after 5d dosing
T1 construct: from tissue; host or cells: OCI-Ly10 xenograft tumours grown in mice
Method: Target exposure for efficacy in OCI-Ly10 is steady state C24h of 10-80 nM based on either a 3 mpk or 10 mpk dose. Rapid regressions are associated with strong degradation of both IRAK4 and IMiD substrates.

[2] = system: OCI-Ly10; assay: CTG cell viability assay - OCI-Ly10; type: cell-based; conditions: Homo sapiens, 96 h; OCI-Ly10, 4 days
Method: Compound-mediated viability effect on OCI-Ly10 or SUDHL-2 was quantitatively determined using the CellTiter-Glo® Luminescent Cell Viability Assay kit from Promega (Catalog number G7570) following manufacturer's recommended procedures. Briefly, OCI-Ly10 or SUDHL-2 cells were seeded into 384 well plates (Grenier Bio-One, Catalog number 781080) with a density of 10,000 cells per well. Compounds were then added to the assay plate with final top concentration of 10 μM and 1:3 dilution series with total of 9 doses. The final DMSO concentration was normalized to 0.2%. The assay plates were incubated at 37° C. for 4 days under 5% CO2. Then the assay plate was equilibrated at room temperature for 10 minutes. To determine cell viability, 30 μL CellTiter Glo reagent was added to each well and the assay plate was centrifuged at 1000 rpm for 30 second, incubated at room temperature for 10 min, and analyzed by detecting the luminescence using a multimode plate reader (EnVision 2105, PerkinElmer). The data was then analyzed by software Prism 7.0 from GraphPad and the dose response curves were fit using a three-parameter logistic equation to calculate IC50.

[3] = system: OCI-LY10 human diffuse large B-cell lymphoma model; assay: Combination xenograph studies in OCI-LY10 model; type: in vivo, mouse
Method: Study Purpose: The objective was to evaluate the efficacy of Compound A combinations in the OCI-LY10 human diffuse large B-cell lymphoma model in female CB-17 SCID mice.
Cell Culture: The OCI-LY10 tumor cells were maintained as a suspension in RPMI1640 medium supplemented with 10% fetal bovine serum and 100 μg/mL penicillin/100 μg/mL streptomycin (study 1) or 1% Antibiotic-Antimycotic (study 2) at 37° C. in an atmosphere of 5% CO2 in air. The tumor cells were routinely subcultured twice weekly by trypsin-EDTA treatment. The cells growing in an exponential growth phase were harvested and counted for tumor inoculation.
Animals: CB-17 SCID, female, 6-8 weeks, weighing approximately 18-22 g. In total of 56 animals (study 1) and 66 animals (study 2) were used in the study.
Tumor Inoculation: Each mouse was inoculated subcutaneously at the right flank with OCI-LY10 tumor cells (10×10^6) in 0.2 mL of PBS with matrigel for tumor development. The treatments were started when the tumor sizes reach 100 mm^3 for the study.
3 days prior to treatment initiation, augment diet gel/supplement to all study animals. Compound are diluted to required dosing volume with 0.9% saline
R-CHOP Dosing Sequence: Rituxan, IP; Doxorubicin, IV 15 min post Rituxan; Vincristine, IV 15 min post Doxorubicin; Cyclophosphamide, IV 15 min post Vincristine; Prednisone, PO 15 min post Cyclophosphamide.
Assignment to Groups: Before commencement of treatment, all animals were weighed and the tumor volumes measured. Since the tumor volume can affect the compound efficacy, mice were assigned into groups using an Excel-based randomization procedure performing stratified randomization based upon their tumor volumes.

T1 sequence (Q9UKT9 whole entry): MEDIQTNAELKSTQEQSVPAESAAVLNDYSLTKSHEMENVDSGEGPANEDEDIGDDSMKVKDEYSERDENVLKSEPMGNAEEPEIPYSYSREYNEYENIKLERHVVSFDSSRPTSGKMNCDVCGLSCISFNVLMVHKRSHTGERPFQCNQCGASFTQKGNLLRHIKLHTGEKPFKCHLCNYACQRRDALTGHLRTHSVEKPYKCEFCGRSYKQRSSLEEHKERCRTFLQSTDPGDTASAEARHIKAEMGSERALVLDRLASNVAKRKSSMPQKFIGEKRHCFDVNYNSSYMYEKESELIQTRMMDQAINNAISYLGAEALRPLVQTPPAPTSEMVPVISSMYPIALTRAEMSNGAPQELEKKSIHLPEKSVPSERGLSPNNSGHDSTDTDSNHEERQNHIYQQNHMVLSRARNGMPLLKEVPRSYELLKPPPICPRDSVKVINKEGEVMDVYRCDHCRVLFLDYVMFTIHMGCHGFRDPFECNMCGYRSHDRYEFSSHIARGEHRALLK
T1 sequence (Q96SW2 whole entry): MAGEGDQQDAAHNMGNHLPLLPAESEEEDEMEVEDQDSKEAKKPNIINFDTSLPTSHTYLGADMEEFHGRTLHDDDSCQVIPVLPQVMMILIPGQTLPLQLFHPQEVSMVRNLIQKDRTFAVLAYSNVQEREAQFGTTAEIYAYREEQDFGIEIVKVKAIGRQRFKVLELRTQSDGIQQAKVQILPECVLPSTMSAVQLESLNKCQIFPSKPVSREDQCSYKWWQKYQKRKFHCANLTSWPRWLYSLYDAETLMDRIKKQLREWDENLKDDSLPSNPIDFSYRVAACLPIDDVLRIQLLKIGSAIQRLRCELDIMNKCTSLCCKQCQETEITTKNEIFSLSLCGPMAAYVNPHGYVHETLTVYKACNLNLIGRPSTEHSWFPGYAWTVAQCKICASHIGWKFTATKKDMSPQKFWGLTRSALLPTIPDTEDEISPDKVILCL
T1 sequence (Q16531 whole entry partner): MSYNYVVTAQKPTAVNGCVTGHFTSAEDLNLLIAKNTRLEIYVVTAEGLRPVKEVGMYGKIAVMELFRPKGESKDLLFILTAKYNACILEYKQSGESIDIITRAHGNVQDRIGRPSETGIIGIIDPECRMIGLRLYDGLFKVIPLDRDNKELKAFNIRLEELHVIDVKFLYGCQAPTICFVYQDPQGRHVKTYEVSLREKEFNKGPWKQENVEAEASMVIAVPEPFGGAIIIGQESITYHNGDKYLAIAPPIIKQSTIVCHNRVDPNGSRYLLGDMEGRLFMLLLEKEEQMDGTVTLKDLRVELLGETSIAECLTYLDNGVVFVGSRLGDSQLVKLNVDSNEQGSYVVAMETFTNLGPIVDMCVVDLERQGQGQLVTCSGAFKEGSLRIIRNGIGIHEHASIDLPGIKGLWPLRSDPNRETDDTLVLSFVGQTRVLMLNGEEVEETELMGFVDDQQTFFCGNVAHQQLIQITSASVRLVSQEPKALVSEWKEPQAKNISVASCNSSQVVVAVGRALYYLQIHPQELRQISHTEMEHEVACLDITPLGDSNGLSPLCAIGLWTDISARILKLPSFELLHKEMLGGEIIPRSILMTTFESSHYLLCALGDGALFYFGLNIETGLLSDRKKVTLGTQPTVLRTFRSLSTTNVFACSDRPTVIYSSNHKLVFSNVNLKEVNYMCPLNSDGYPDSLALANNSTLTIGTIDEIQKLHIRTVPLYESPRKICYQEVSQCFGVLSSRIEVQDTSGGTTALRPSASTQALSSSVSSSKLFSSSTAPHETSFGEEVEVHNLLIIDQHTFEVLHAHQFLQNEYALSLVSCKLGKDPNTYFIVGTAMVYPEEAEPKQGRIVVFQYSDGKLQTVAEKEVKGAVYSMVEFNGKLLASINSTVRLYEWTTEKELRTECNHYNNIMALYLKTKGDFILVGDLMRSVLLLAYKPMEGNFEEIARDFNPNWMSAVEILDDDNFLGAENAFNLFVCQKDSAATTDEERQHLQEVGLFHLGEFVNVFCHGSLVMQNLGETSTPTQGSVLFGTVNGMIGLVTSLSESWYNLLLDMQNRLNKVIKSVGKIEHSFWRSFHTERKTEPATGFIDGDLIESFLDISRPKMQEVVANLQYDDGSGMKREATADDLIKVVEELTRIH

CC(C)(O)c1cc2nc([C@H]3CC[C@H](CN4CC5(CC(CCNc6cccc7c6C(=O)N(C6CCC(=O)NC6=O)C7=O)C5)C4)CC3)sc2cc1NC(=O)c1cccc(C(F)(F)F)n1 (some centres unmarked) [Compound A, N-(2-((1r,4r)-4-((6-(2-((2-(2,6-dioxopiperidin-3-yl)-1,3-dioxoisoindolin-4-yl)amino)ethyl)-2-azaspiro[3.3]heptan-2-yl)methyl)cyclohexyl)-5-(2-hydroxypropan-2-yl)benzo[d]thiazol-6-yl)-6-(trifluoromethyl)picolinamide]
Aiolos (% Deg) ([1]; 3 mpk): 49%
Aiolos (% Deg) ([1]; 10 mpk): 91%
Aiolos (% Deg) ([1]; 30 mpk): 97%
pIC50 [2]: > 7.30
combination effect with venetoclax ([3]; mutant MYD88 OCI-Ly10 xenographs, Bliss independent method, FIG. 11): supra-additive
combination effect with rituximab ([3]; mutant MYD88 OCI-Ly10 xenographs, Bliss independent method, FIG. 12 upper graph): supra-additive
combination effect with ibrutinib ([3]; mutant MYD88 OCI-Ly10 xenographs, intermittent schedules, FIG. 10): additive
combination with rituximab in relapsed tumors ([3]; tumors that relapsed following initial R-CHOP treatment, FIG. 12 lower graph): strong tumor regressions
